Earlier results, collected in US11642339B2 (THERAVANCE BIOPHARMA R&D IP, LLC, priority 2017, dated 2023).

What was measured:
[1] = system: patients with functional dyspepsia; conditions: Japan, placebo 35%; cited from earlier work
[2] = system: patients on daily therapy; conditions: long-term use; cited from earlier work
[3] = system: patients with functional dyspepsia; conditions: after 4 weeks of treatment; placebo 12.7%; cited from earlier work

COc1cc(O)c(C(=O)Nc2nc(C(=O)NCCN(C(C)C)C(C)C)cs2)cc1OC [Acotiamide]
patients with symptom improvement [1]: 52%

CCN(CC)CCNC(=O)c1cc(Cl)c(N)cc1OC [metoclopramide]
patients with adverse CNS effects [2]: up to 30%

O=C1[C@@H]2[C@H]3CC[C@H](C3)[C@@H]2C(=O)N1CCCCN1CCN(c2ncccn2)CC1 [tandospirone]
response rate [3]: 31.5%
